Here are results for 21 compounds from PubChem BioAssay (NCI).

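Protocol summary: plate cells (96-well), add compound at 5 concentrations, incubate 48 h, interpolate endpoints linearly. GI50 = concentration required for 50% inhibition of growth. TGI marks complete inhibition of growth.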

The first assay deals with MALME-3M melanoma. Put plainly: growth of human tumour cells (NCI), 48 h.
Regarding `Cn1c(=O)c2c(nc(-n3nc(-c4ccc(Cl)cc4)cc3N)n2C)n(C)c1=O`, the TGI was 83.2 µM.
The same measure, in the same setting: then `N=c1c2c(C(N)=O)cn(C3OC(CO)C(O)C3O)c2ncn1O` (stereo not given), with 0.477 µM; and `CCS(=O)(=O)Nc1ccc(Nc2c3ccccc3nc3ccccc23)c(OC)c1`, with 2.37 µM; and `Cc1nc(N)nc(N)c1-c1ccc(Cl)c(Cl)c1`, with greater than 87.7 µM.
Same read-out and setting: then `Cc1cccc2nc3c(C(=O)NCCN(C)C)cccc3cc12`, with 2.78 µM; and `C[C@]12CC[C@@H]3c4ccc(OP(=O)(O)O)cc4CC[C@H]3[C@@H]1CCC2=O`, with greater than 100 µM; and `CCSCCC(N)C(=O)O` (stereo not given), with greater than 100 µM.
Still for that read-out and setting: then `COc1ccc2nc(N/N=C/C(C)=N/Nc3cc(C)c4cc(OC)ccc4n3)cc(C)c2c1`, with 76.4 µM.
Regarding `CN(C)CC(=O)Nc1ccc(Cn2nnc3c2C(=O)c2nnn(Cc4ccc(NC(=O)CN(C)C)cc4)c2C3=O)cc1`, the GI50 is 0.115 µM and the TGI stood at 0.266 µM.

Another assay deals with SF-268 CNS. As to the kind of experiment: growth of human tumour cells (NCI), 48 h.
Consider `CCN(CC)CC(C)Nc1ccc([N+](=O)[O-])c2sc3ccccc3c(=O)c12` (stereo not given), for which the GI50 was 2.71 µM and the TGI turned out to be 18.5 µM.
For `N=C(N)c1ccc(-c2ccc(-c3cc(Cl)cc(Cl)c3)o2)nc1`, the GI50 was 1.82 µM and the TGI worked out at 3.46 µM.
On to `CCOC(=O)CSc1nc(N)c2c(-c3ccc(OC)c(OC)c3)c3c(nc2n1)CCCC3`, for which the TGI is greater than 100 µM.
Still for that read-out and setting: then `CNC(=O)OC(C)CN1c2ccccc2Sc2ccc(Cl)cc21` (stereo not given), with greater than 10 µM.
As to `O=C(CCCCCCC(=O)Nc1ccc(N(CCCl)CCCl)cc1)NO`, the GI50 was 1.08 µM and the TGI turned out to be 3.82 µM.
With `CN1CC[C@@]2(c3cccc(O)c3)CC(=O)/C(=C/c3ccccc3)[C@H]1C2`, the TGI came out at 19.7 µM.
Turning to `ONc1ncnc2nc[nH]c12`, the TGI was greater than 100 µM.
Same read-out and setting: then `CCCc1[nH]c(SCCCCCCCCSc2nc(-c3ccc(F)cc3)c(CCC)[nH]2)nc1-c1ccc(F)cc1`, with 16.9 µM; and `O=S(=O)(O)c1ccc2cccc(N=Nc3c(O)ccc4ccccc34)c2c1`, with greater than 100 µM.
As to `COc1ccc2nc(-c3ccc(-c4noc(-c5cc(OC)c(OC)c(OC)c5)n4)cc3)[nH]c2c1`, the GI50 was 7.13 µM and the TGI was 45.6 µM.
On the same counts, the results for `COc1ccc(/C(=C2/O[C@@H]([C@H]3COC(C)(C)O3)[C@H]3OC(C)(C)O[C@@H]23)c2cc(OC)c(OC)c(OC)c2)cc1O` are 7.95 µM and 53.6 µM.
In the case of `Cn1c(=O)c2c(nc(-n3nc(-c4ccc(Cl)cc4)cc3N)n2C)n(C)c1=O`, the TGI is greater than 100 µM.
In turn, `CCS(=O)(=O)Nc1ccc(Nc2c3ccccc3nc3ccccc23)c(OC)c1` displayed a TGI of 12.5 µM.
Regarding `Cc1nc(N)nc(N)c1-c1ccc(Cl)c(Cl)c1`, the TGI is greater than 100 µM.
On the same count and under the same terms, then `Cc1cccc2nc3c(C(=O)NCCN(C)C)cccc3cc12`, with 5.09 µM.
Same read-out and setting: then `C[C@]12CC[C@@H]3c4ccc(OP(=O)(O)O)cc4CC[C@H]3[C@@H]1CCC2=O`, with greater than 100 µM.
Consider `CCSCCC(N)C(=O)O` (stereo not given), for which the TGI is greater than 100 µM.
The same measure, in the same setting: then `COc1ccc2nc(N/N=C/C(C)=N/Nc3cc(C)c4cc(OC)ccc4n3)cc(C)c2c1`, with 60.8 µM.

The test system of another assay is SK-MEL-5 melanoma. Put plainly: growth of human tumour cells (NCI), 48 h.
Consider `CCN(CC)CC(C)Nc1ccc([N+](=O)[O-])c2sc3ccccc3c(=O)c12` (stereo not given), for which the GI50 was 1.08 µM and the TGI came to 2.26 µM.
The like results for `N=C(N)c1ccc(-c2ccc(-c3cc(Cl)cc(Cl)c3)o2)nc1` were, in that order, 1.77 µM and 3.25 µM.
As for `CCOC(=O)CSc1nc(N)c2c(-c3ccc(OC)c(OC)c3)c3c(nc2n1)CCCC3`, the TGI was greater than 100 µM.
Still for that read-out and setting: then `CNC(=O)OC(C)CN1c2ccccc2Sc2ccc(Cl)cc21` (stereo not given), with greater than 10 µM.
As for `O=C(CCCCCCC(=O)Nc1ccc(N(CCCl)CCCl)cc1)NO`, the GI50 is 1.33 µM and the TGI was found to be 2.92 µM.
Compound `CN1CC[C@@]2(c3cccc(O)c3)CC(=O)/C(=C/c3ccccc3)[C@H]1C2` came in with a TGI greater than 54.8 µM.
`O=C(N/N=C(/c1ccccc1)C(F)(F)F)c1ccncc1` yielded a TGI greater than 100 µM.
The same measure, in the same setting: then `ONc1ncnc2nc[nH]c12`, with greater than 100 µM.
`CCCc1[nH]c(SCCCCCCCCSc2nc(-c3ccc(F)cc3)c(CCC)[nH]2)nc1-c1ccc(F)cc1` yielded a TGI of 67.1 µM.
In turn, `O=S(=O)(O)c1ccc2cccc(N=Nc3c(O)ccc4ccccc34)c2c1` displayed a TGI greater than 100 µM.
`COc1ccc2nc(-c3ccc(-c4noc(-c5cc(OC)c(OC)c(OC)c5)n4)cc3)[nH]c2c1`: the GI50 is 3.25 µM and the TGI was 17.3 µM.
On the same counts, the results for `COc1ccc(/C(=C2/O[C@@H]([C@H]3COC(C)(C)O3)[C@H]3OC(C)(C)O[C@@H]23)c2cc(OC)c(OC)c(OC)c2)cc1O` are 4.12 µM and 15 µM.
As for `Cn1c(=O)c2c(nc(-n3nc(-c4ccc(Cl)cc4)cc3N)n2C)n(C)c1=O`, the TGI was greater than 100 µM.
Same read-out and setting: then `N=c1c2c(C(N)=O)cn(C3OC(CO)C(O)C3O)c2ncn1O` (stereo not given), with 0.174 µM.
Same read-out and setting: then `CCS(=O)(=O)Nc1ccc(Nc2c3ccccc3nc3ccccc23)c(OC)c1`, with 12.9 µM; and `Cc1nc(N)nc(N)c1-c1ccc(Cl)c(Cl)c1`, with greater than 44.7 µM; and `Cc1cccc2nc3c(C(=O)NCCN(C)C)cccc3cc12`, with 3.06 µM.
Turning to `C[C@]12CC[C@@H]3c4ccc(OP(=O)(O)O)cc4CC[C@H]3[C@@H]1CCC2=O`, the TGI is 69.2 µM.
The same measure, in the same setting: then `CCSCCC(N)C(=O)O` (stereo not given), with greater than 100 µM; and `COc1ccc2nc(N/N=C/C(C)=N/Nc3cc(C)c4cc(OC)ccc4n3)cc(C)c2c1`, with 72.8 µM.
Regarding `CN(C)CC(=O)Nc1ccc(Cn2nnc3c2C(=O)c2nnn(Cc4ccc(NC(=O)CN(C)C)cc4)c2C3=O)cc1`, the GI50 is 0.151 µM and the TGI is 0.286 µM.
